The source of these data is US12162878B2 (HINOVA PHARMACEUTICALS INC., priority 2018, dated 2024).

Each structure is given as a SMILES string.

Common to all, as to assay type: cell-based, human
The test system of one experiment is MDA-MB-453 cells. As to the kind of experiment: Inhibition of proliferation of MDA-MB-453 cells (CCK-8). Particulars: Homo sapiens, 144 h, 6 days, CCK-8. As to the method: • MDA-MB-453 cell line (Cell Bank of Chinese Academy of Sciences, TCHu35) • FBS (Gibco, Cat. No. 10099-141) • 0.01M PBS (Biosharp, Cat. No. 162262) • RIPM1640 (Hyclone, Cat. No. 308090.01) • Penicillin-Streptomycin (Hyclone, Cat. No. SV30010) • Cell counting kit-8 (Signalway Antibody, Cat. No. CP002) • DMSO (Sigma, Cat. No. D5879) • Centrifuge Tube, 15 ml (Excell Bio, Cat. No. CS015-0001) • Cell Culture Dish, (Excell Bio, Cat. No. CS016-0128) • 96-well cell culture cluster (Corning, Cat. No. 3599) 3. Experimental Method
1) MDA-MB-453 cells were subcultured in cell culture media, and the cells in good growth condition were seeded in a 96-well plate, 80 μL for each well, thus the number of cells per well was 1500, then the plate was cultured overnight in a 37° C., 5% CO2 cell incubator.
(§1) 2) The drug was prepared with dimethyl sulfoxide (DMSO) as a 10 mM stock solution. Prior to use, the solution was diluted 3 times with DMSO, and then diluted with a 3-fold gradient to obtain 9 concentration gradients. Then, each concentration of the compound was further diluted 200 times with the culture media (to ensure that DMSO concentration in the culture system was 0.1%), 2 repeat wells for each concentration. The diluted solution of each compound (20 μL) was added to the cell culture well (with a final concentration of 10 μM, 3.3 μM, 1.1 μM . . . ), and shaken gently for mixing. In addition, three negative control wells containing only cells and three blank control wells containing only culture medium (20 μL DMSO diluted 200 times with culture medium being added to six wells) were included.
(§2) (1) After culturing for 6 days, 10 μL CCK-8 was added to each well and cultured for additional 2.5 h in a 37° C., 5% CO2 cell incubator.
(§3) (2) The absorbance (OD value) at 450 nm was measured with a multifunctional microplate reader.
(§4) (3) The data was analyzed by the Dose-response-inhibition equation in the software GraphPad Prism6, and the IC50 value was obtained.

The subject of experiment [1] is CWR22RV1 cells. As to the kind of experiment: Inhibition of proliferation of CWR22RV1 cells (CCK-8). The conditions noted are these: Homo sapiens, CWR22Rv1, 144 h, 6 days. The essentials:
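Cells seeded at 1500/well, cultured overnight, then exposed to compounds in 3-fold dilutions (9 concentrations from 10 μM top final, 0.1% DMSO) for 6 days at 37 °C. Viability read by CCK-8 absorbance at 450 nm after 2.5 h; IC50 from dose-response inhibition fit.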

For a further experiment, the system named is MDA-MB-231 cells. As to the kind of experiment: Inhibition of proliferation of MDA-MB-231 cells (CCK-8). As to the method: • MDA-MB-231 cell line (Cell Bank of Chinese Academy of Sciences, TCHu104) • FBS (Gibco, Cat. No. 10099-141) • 0.01M PBS (Biosharp, Cat. No. 162262) • RIPM1640 (Hyclone, Cat. No. 308090.01) • Penicillin-Streptomycin (Hyclone, Cat. No. SV30010) • Cell counting kit-8 (Signalway Antibody, Cat. No. CP002) • DMSO (Sigma, Cat. No. D5879) • Centrifuge Tube, 15 ml (Excell Bio, Cat. No. CS015-0001) • Cell Culture Dish, (Excell Bio, Cat. No. CS016-0128) • 96-well cell culture cluster (Corning, Cat. No. 3599) 3. Experimental Method
1) MDA-MB-231 cells were subcultured in cell culture media, and the cells in good growth condition were seeded in a 96-well plate, 80 μL for each well, thus the number of cells per well was 1500, then the plate was cultured overnight in a 37° C., 5% CO2 cell incubator.
as §1, §2, §3, §4

The subject of the next experiment is MCF-7 cells. As to the kind of experiment: Inhibition of proliferation of MCF-7 cells (CCK-8). The method, then: • MCF-7 cell line (Cell Bank of Chinese Academy of Sciences, TCHu74) • FBS (Gibco, Cat. No. 10099-141) • 0.01M PBS (Biosharp, Cat. No. 162262) • RIPM1640 (Hyclone, Cat. No. 308090.01) • Penicillin-Streptomycin (Hyclone, Cat. No. SV30010) • Cell counting kit-8 (Signalway Antibody, Cat. No. CP002) • DMSO (Sigma, Cat. No. D5879) • Centrifuge Tube, 15 ml (Excell Bio, Cat. No. CS015-0001) • Cell Culture Dish, (Excell Bio, Cat. No. CS016-0128) • 96-well cell culture cluster (Corning, Cat. No. 3599) 3. Experimental Method
1) MCF-7 cells were subcultured in cell culture media, and the cells in good growth condition were seeded in a 96-well plate, 80 μL for each well, thus the number of cells per well was 1000, then the plate was cultured overnight in a 37° C., 5% CO2 cell incubator.
2) The drug was prepared with dimethyl sulfoxide (DMSO) as a 10 mM stock solution. Prior to use, the solution was diluted 3 times with DMSO, and then diluted with a 3-fold gradient to obtain 9 concentration gradients. Then, each concentration of the compound was further diluted 200 times with the culture media (to ensure that DMSO concentration in the culture system was 0.1%), 2 repeat wells for each concentration. The diluted solution of each compound (20 μL) was added to the cell culture well (with a final concentration of 10 μM, 3.3 μM, 1.1 μM . . . ), and shaken gently for mixing.
In addition, three negative control wells containing only cells and three blank control wells containing only culture medium (20 μL DMSO diluted 200 times with culture medium being added to six wells) were included.
as §2, §3, §4

Experiment [2] has as its system Vcap cells. As to the kind of experiment: Compound in combination with androgen receptor inhibitor HC-1119, proliferation of Vcap cells (CCK-8). The conditions noted are these: for IC50: Homo sapiens, VCaP, 144 h, 6 days, read-out: IC50 for inhibition on the activity of Vcap. The method, then:
• Vcap cell line (Cell Bank of Chinese Academy of Sciences, TCHu220) • FBS (Gibco, Cat. No. 10099-141) • 0.01M PBS (Biosharp, Cat. No. 162262) • DMEM HIGH Glucose (Hyclone, Cat. No. SH30243.01) • Penicillin-Streptomycin (Hyclone, Cat. No. SV30010) • Cell counting kit-8 (Signalway Antibody, Cat. No. CP002) • DMSO (Sigma, Cat. No. D5879) • Centrifuge Tube, 15 ml (Excell Bio, Cat. No. CS015-0001) • Cell Culture Dish (Excell Bio, Cat. No. CS016-0128) • 96-well cell culture cluster (Corning, Cat. No. 3599) 2. Experimental Method
1) Vcap cells were subcultured in cell culture media, and the cells in good growth condition were seeded in a 96-well plate, 60 μL for each well, thus the number of cells per well was 10000, then the plate was cultured overnight in a 37° C., 5% CO2 cell incubator.
(§5) 2) The drug was prepared with dimethyl sulfoxide (DMSO) as a 10 mM stock solution. Prior to use, the solution was diluted 3 times with DMSO, and then diluted with a 3-fold gradient to obtain 9 concentration gradients. Then, each concentration of the compound was further diluted 200 times with the culture media (to ensure that DMSO concentration in the culture system was 0.1%), 2 repeat wells for each concentration. The diluted solution of each compound (20 μL) was added to the cell culture well (with a final concentration of 10 μM, 3.3 μM, 1.1 μM . . . ); while the solution of HC-1119 was diluted with culture media to the concentrations of 50 μM and […], respectively, and the diluted solution of HC-1119 was added to the corresponding cell culture well (with a final concentration of 10 μM, 1 μM), then shaken gently for mixing. In addition, three negative control wells containing only cells and three blank control wells containing only culture media (20 μL DMSO diluted 200 times with culture media being added to six wells) were included.
as §2, §3, §4

Experiment [3] has as its system Vcap cells. As to the kind of experiment: Inhibition of proliferation of Vcap cells (CCK-8). The method, then: • Vcap cell line (Cell Bank of Chinese Academy of Sciences, TCHu220) • FBS (Gibco, Cat. No. 10099-141) • 0.01M PBS (Biosharp, Cat. No. 162262) • DMEM HIGH Glucose (Hyclone, Cat. No. SH30243.01) • Penicillin-Streptomycin (Hyclone, Cat. No. SV30010) • Cell counting kit-8 (Signalway Antibody, Cat. No. CP002) • DMSO (Sigma, Cat. No. D5879) • Centrifuge Tube, 15 ml (Excell Bio, Cat. No. CS015-0001) • Cell Culture Dish, (Excell Bio, Cat. No. CS016-0128) • 96-well cell culture cluster (Corning, Cat. No. 3599) 2. Experimental Method
1) Vcap cells were subcultured in cell culture media, and the cells in good growth condition were seeded in a 96-well plate, 80 μL for each well, thus the number of cells per well was 10000, then the plate was cultured overnight in a 37° C., 5% CO2 cell incubator.
as §1, §2, §3, §4

The test system of experiment [4] is CWR22RV1 cells. As to the kind of experiment: Compound in combination with androgen receptor inhibitor HC-1119, proliferation of CWR22RV1 cells (CCK-8). The conditions noted are these: for IC50: Homo sapiens, CWR22Rv1, 144 h, 6 days, read-out: IC50 for inhibition on the activity of CWR22RV1. As to the method:
• CWR22RV1 cell line (Cell Bank of Chinese Academy of Sciences, TCHu100) • FBS (Gibco, Cat. No. 10099-141) • 0.01M PBS (Biosharp, Cat. No. 162262) • RIPM1640 (Hyclone, Cat. No. 308090.01) • Penicillin-Streptomycin (Hyclone, Cat. No. SV30010) • Cell counting kit-8 (Signalway Antibody, Cat. No. CP002) • DMSO (Sigma, Cat. No. D5879) • Centrifuge Tube, 15 ml (Excell Bio, Cat. No. CS015-0001) • Cell Culture Dish, (Excell Bio, Cat. No. CS016-0128) • 96-well cell culture cluster (Corning, Cat. No. 3599) Experimental Method:
1) CWR22RV1 cells were subcultured in cell culture media, and the cells in good growth condition were seeded in a 96-well plate, 60 μL for each well, thus the number of cells per well was 2000, then the plate was cultured overnight in a 37° C., 5% CO2 cell incubator.
as §5, with “10 μM, 3 μM), then” for “10 μM, 1 μM), then”
as §2, §3, §4

The mark [5] stands for this setting: Homo sapiens, 144 h, 6 days, CCK-8.

Broadly, the IC50 is the concentration at which inhibition is half-maximal. In the case of `Cn1cc(-c2cc(S(C)(=O)=O)ccc2N2CCC3(CC2)CC3(F)F)c2cc[nH]c2c1=O` [Compound 178, 4-(2-(1,1-difluoro-6-aza-spiro[2.5]octan-6-yl)-5-(methylsulfonyl)phenyl)-6-methyl-1H-pyrrolo[2,3-c]pyridin-7(6H)-one], the IC50 in the experiment with MDA-MB-453 cells was determined as 720 nM; in the experiment with CWR22RV1 cells [1], 5 nM; with MDA-MB-231 cells (setting [5]) it was 39 nM; in the experiment on MCF-7 cells (Homo sapiens, MCF7, 144 h, 6 days, CCK-8) it was 29 nM. In addition, the “inhibitory action on MDA-MB-231 cells (in words)” value in the experiment with MDA-MB-231 cells is given as “effective inhibitory action”. In addition, the “inhibitory action on MCF-7 cells (in words)” value in the experiment with MCF-7 cells was “effective inhibitory action”.

Take `[2H]C([2H])([2H])n1cc(-c2cc(S(=O)(=O)CC)ccc2N2CCC3(CC2)CC3(F)F)c2cc[nH]c2c1=O` [Compound 231, 4-(2-(1,1-difluoro-6-aza-spiro[2.5]octan-6-yl)-5-(ethylsulfonyl)phenyl)-6-trideuteromethyl-1H-pyrrolo[2,3-c]pyridin-7(6H)-one]: the IC50 with Vcap cells [2] (compound alone, Vcap cells) is 3.9 nM; in the experiment with Vcap cells [2] (in combination with 1 μM HC-1119, Vcap cells) it was 0.076 nM; in the experiment on Vcap cells [2] (in combination with 10 μM HC-1119, Vcap cells), 0.027 nM; in the experiment on Vcap cells [3] (setting [5]) it was 3.9 nM; in the experiment on CWR22RV1 cells [4] (compound alone, CWR22RV1 cells) it was 1.8 nM; in the experiment on CWR22RV1 cells [4] (in combination with 3 μM HC-1119, CWR22RV1 cells) it was 0.65 nM. Further, the IC50 with CWR22RV1 cells [4] (in combination with 10 μM HC-1119, CWR22RV1 cells) stood at 0.51 nM. The “effect of combination with HC-1119 on inhibitory action on Vcap cells (in words)” value in the experiment on Vcap cells [2] (in combination with HC-1119, Vcap cells) is reported as “improve the inhibitory action”. Also, in the experiment on Vcap cells [3], the “inhibitory action on Vcap cells (in words)” value is listed as “effective inhibitory action”. Further, the “effect of combination with HC-1119 on inhibitory action on CWR22RV1 cells (in words)” value in the experiment on CWR22RV1 cells [4] (in combination with HC-1119, CWR22RV1 cells) is “improve the inhibitory action”.
